Assay results published in US7713969B2, “Compositions and methods for treatment of cancer” (ArQule, Inc., priority 2005, dated 2010).

How the values were obtained:
[1] = test system: MDA-MB-231 cells or Paca-2 cells; test: Cell survival in six-well plates, Wright-Giemsa stain (Example 77); format: cell-based; conditions: Homo sapiens; 0.1-2 μM, cultures observed 10-15 days; cell line of the IC50 not stated
Experimental: Exponentially growing MDA-MB-231 cells or Paca-2 cells were seeded at 1,000 cells per well in six-well plates and allowed to attach for 24 hours. MDA-MB-231 and Paca-2 cells were cultured in DMEM supplemented with 10% (v/v) fetal calf serum (FCS) and 5 ml Penicillin/Streptomycin at 37° C. in 5% CO2. MDA-MB-231 and Paca-2 were established estrogen receptor negative human breast cancer and pancreatic carcinoma cell lines, respectively. (±)-cis-3-(5,6-dihydro-4H-pyrrolo[3,2,1-ij]quinolin-1yl)-4(1H-indol-3-yl)pyrrolidine-2,5-dione or (±)-trans-3-(5,6-dihydro-4H-pyrrolo[3,2,1-ij]quinolin-1-yl)-4(1H-indol-3-yl)pyrrolidine-2,5-dione were each dissolved at a concentration of 10 mM in DMSO, and separately added to cells at a concentration of 0.1, 0.25, 0.5, 1 or 2 μM. Control plates received DMSO alone, at the same percentage of total culture volume as that administered in conjunction with the highest concentration of drug. Cell cultures were observed daily for 10-15 days, then fixed and stained with modified Wright-Giemsa stain (Sigma). Treatment with (±)-cis-3-(5,6-dihydro-4H-pyrrolo [3,2,1-ij]quinolin-1yl)-4(1H-indol-3-yl)pyrrolidine-2,5-dione or (±)-trans-3-(5,6-dihydro-4H-pyrrolo[3,2,1-ij]quinolin-1-yl)-4(1H-indol-3-yl)pyrrolidine-2,5-dione results in cell death of MDA-MB-231 cells or Paca-2 cells. See, e.g., FIG. 2.

[2] = test system: MDA-MB-231 human breast cancer xenograft; test: MDA-MB-231 xenograft, intraperitoneal 160 mg/kg (Example 81); format: in vivo, mice; conditions: 160 mg/kg intraperitoneally, q3d×10, lipiodol vehicle
Experimental: Athymic female nude mice (CRL:NU/NU-nuBR) were injected subcutaneously in the flank with MDA-MB-231 human breast cancer cells (8×10^6 cells/mouse). Prior to injection, MDA-MB-231 cells were cultured in DMEM (Invitrogen #11965-092) supplemented with 10% (v/v) heat inactivated fetal bovine serum (FBS), 1% Hepes buffer solution (Invitrogen #15630-080) and 1% Penicillin/Streptomycin (Invitrogen #15140-122) at 37° C. in 5% CO2. Tumors were allowed to grow to approximately 50 mm^3 in size. Animals were randomized into three groups of five animals per group. At day ten post injection, mice with established tumors were treated intraperitoneally with (±)-cis-3-(5,6-dihydro-4H-pyrrolo[3,2,1-ij]quinolin-1yl)-4(1H-indol-3-yl) pyrrolidine-2,5-dione (160 mg/kg), (±)-trans-3-(5,6-dihydro-4H-pyrrolo[3,2,1-ij]quinolin-1-yl)-4(1H-indol-3-yl)pyrrolidine-2,5-dione (160 mg/kg) administered in iodinated poppy seed oil (lipiodol) as the vehicle at 10 mg/ml, or vehicle control. Drug or vehicle was administered every three days for a total of ten doses (q3d×10). Tumor size was evaluated periodically during the study. For each subject, tumor volume was calculated using the formula (L×W^2)/2 where L and W were the length and width of the tumor, respectively. The arithmetic mean tumor volume was calculated for each treatment group+/−standard error of the mean (SEM). […]

[3] = test system: Recombinant Protein Kinase C; test: Protein Kinase C kinase reaction, Histone H1, autoradiography (Example 79); format: biochemical; conditions: 0.05, 0.5, or 10 μM, 15 minutes at room temperature
Experimental: Recombinant Protein Kinase C (Calbiochem) (100 ng) was incubated with (±)-cis-3-(5,6-dihydro-4H-pyrrolo[3,2,1-ij]quinolin-1yl)-4(1H-indol-3-yl)pyrrolidine-2,5-dione or (±)-trans-3-(5,6-dihydro-4H-pyrrolo[3,2,1-ij]quinolin-1-yl)-4(1H-indol-3-yl)pyrrolidine-2,5-dione at 0.05, 0.5, or 10 μM for 15 minutes at room temperature. Subsequently, a radioactive labeling mix in kinase buffer (20 mM Tris-HCl pH 7.5, 10 mM MgCl2) containing 20 μM ATP, 0.2 μCi/μl γ^32P-ATP, 0.2 μg/μl Histone H1 (Upstate) was added to each sample. The kinase reaction was carried out for 5 minutes at room temperature. Reaction products were analyzed by 12% SDS-PAGE and autoradiography.

HT29 = test: Cell viability MTS assay; format: cell-based, human; conditions: Homo sapiens, HT-29, 72 hours with compound
How it was run: (§1)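 Tetrazolium (MTS) viability read after 72 hours of compound treatment in DMEM with 15% FBS, 10 mM L-glutamine and 10 mM Hepes pH 7.5. IC50 derived by non-linear regression relative to 0.33% DMSO controls.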

MDA-MB-231 = test: Cell viability MTS assay; format: cell-based, human; conditions: Homo sapiens, MDA-MB-231, 72 hours with compound
How it was run: as §1

[4] = test system: MDA-MB-231 human breast cancer xenograft; test: MDA-MB-231 xenograft, intraperitoneal 80 mg/kg (Example 82); format: in vivo, mice; conditions: 80 mg/kg intraperitoneally, 5 days on/2 off, four cycles, DMA/PEG 400
Experimental: Athymic female nude mice (CRL:NU/NU-nuBR) were injected subcutaneously in the flank with MDA-MB-231 human breast cancer cells (8×10^6 cells/mouse). Prior to injection, MDA-MB-231 cells were cultured in DMEM (Invitrogen #11965-092) supplemented with 10% (v/v) heat inactivated fetal bovine serum (FBS), 1% Hepes buffer solution (Invitrogen #15630-080) and 1% Penicillin/Streptomycin (Invitrogen #15140-122) at 37° C. in 5% CO2. Tumors were allowed to grow to approximately 50 mm^3 in size. Animals were randomized into three groups of eight animals per group. At day four post injection, mice with established tumors were treated intraperitoneally with (±)-Cis-3-(5,6-dihydro-4H-pyrrolo[3,2,1-ij]quinolin-1yl)-4(1H-indol-3-yl)pyrrolidine-2,5-dione (80 mg/kg), (±)-Trans-3-(5,6-dihydro-4H-pyrrolo[3,2,1-ij]quinolin-1-yl)-4(1H-indol-3-yl)pyrrolidine-2,5-dione (80 mg/kg) administered in DMA/PEG 400 (1:4 v/v) as the vehicle at 50 mg/ml, or vehicle control intraperitoneally. […] Tumor size was evaluated periodically during the study. For each subject, tumor volume was calculated using the formula (L×W^2)/2 where L and W were the length and width of the tumor, respectively. The arithmetic mean tumor volume was calculated for each treatment group+/−standard error of the mean (SEM). […]

O=C1NC(=O)[C@@H](c2cn3c4c(cccc24)CCC3)[C@H]1c1c[nH]c2ccccc12 (racemic) [(±)-Cis-3-(5,6-dihydro-4H-pyrrolo[3,2,1-ij]quinolin-1-yl)-4(1H-indol-3-yl)pyrrolidine-2,5-dione]
IC50 [1]: 500 nM | reduction of normalized mean tumor volume compared to vehicle treated control [2]: 80.5% | Protein Kinase C kinase activity in comparison to carrier alone [3]: did not reduce kinase activity | IC50 (HT29): 2890 nM | IC50 (MDA-MB-231): 4040 nM | reduction of mean tumor volume compared to vehicle treated control [4]: 73.4%
